Reference: article PMC7719157 (Pharmacology Research & Perspectives, 2020)

What was measured:
[1] = molecular target: T1, PPARγ (Homo sapiens, UniProt P37231); test: TR-FRET coactivator; type: biochemical
T1 sequence (P37231 223-505 limits assumed): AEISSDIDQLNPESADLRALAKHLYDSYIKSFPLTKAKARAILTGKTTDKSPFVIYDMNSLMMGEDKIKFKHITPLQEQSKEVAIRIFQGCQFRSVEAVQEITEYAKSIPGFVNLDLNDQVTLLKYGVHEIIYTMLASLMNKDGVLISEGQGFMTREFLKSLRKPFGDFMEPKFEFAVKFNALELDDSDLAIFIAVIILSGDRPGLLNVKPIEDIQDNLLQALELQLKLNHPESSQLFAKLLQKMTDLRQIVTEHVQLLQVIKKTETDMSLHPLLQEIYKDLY

[2] = molecular target: T2, PPARδ (Homo sapiens, UniProt Q03181); test: AlphaScreen coactivator; type: biochemical
T2 sequence (Q03181 171-441 limits assumed): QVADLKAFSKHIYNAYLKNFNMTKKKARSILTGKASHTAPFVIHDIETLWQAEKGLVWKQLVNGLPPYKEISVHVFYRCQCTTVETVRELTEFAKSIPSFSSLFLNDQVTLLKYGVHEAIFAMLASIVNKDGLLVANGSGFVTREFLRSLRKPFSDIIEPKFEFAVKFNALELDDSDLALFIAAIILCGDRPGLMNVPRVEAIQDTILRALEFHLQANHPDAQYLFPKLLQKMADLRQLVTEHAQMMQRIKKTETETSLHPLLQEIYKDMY

[3] = molecular target: T1, PPARγ; test: [3H]rosiglitazone radioligand displacement; type: binding
[4] = molecular target: T3, PPARα (Homo sapiens, UniProt Q07869); test: AlphaScreen coactivator; type: biochemical
T3 sequence (Q07869 196-468 limits assumed): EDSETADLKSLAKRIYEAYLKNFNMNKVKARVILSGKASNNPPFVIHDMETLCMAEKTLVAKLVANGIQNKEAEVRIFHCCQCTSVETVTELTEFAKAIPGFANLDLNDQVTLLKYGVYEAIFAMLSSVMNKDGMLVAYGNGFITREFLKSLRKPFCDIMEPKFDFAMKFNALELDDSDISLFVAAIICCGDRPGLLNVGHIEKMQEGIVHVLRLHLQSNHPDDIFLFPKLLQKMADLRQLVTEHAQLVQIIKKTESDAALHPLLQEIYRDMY

Row | SMILES | IC50 [1] [µM] | IC50 [2] [µM] | Ki [3] [µM] | IC50 [4] [µM]
1 | O=C(Nc1ccccc1)c1cc([N+](=O)[O-])ccc1Cl [GW9662] | 0.00452 | – | – | –
2 | CC(C)(C)c1ccc(-c2nc(CBr)nn2-c2cccc(O)c2)cc1 [MM902, 3‐(3‐(bromomethyl)‐5‐(4‐(tert‐butyl) phenyl)‐1H‐1,2,4‐triazol‐1‐yl) phenol] | – | 48 | 0.14 | 46
